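96-well plates; 48 h exposure; 5 concentrations. Endpoints by linear interpolation between flanking doses. Not reached: highest tested concentration assigned. GI50: concentration for 50% inhibition of growth.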 Active and inactive are the calls of the source. Cut-off read from the data, not from the text of the source: active = GI50 up to about 1.1 µM and inactive = higher.
Assays:
Assay in all cases: NCI tumour cell line growth inhibition, 48 h
SNB-75 = test system: SNB-75
TK-10 = test system: TK-10
OVCAR-8 = test system: OVCAR-8
NCI-H460 = test system: NCI-H460
M14 = test system: M14
SW-620 = test system: SW-620
SF-295 = test system: SF-295
HOP-92 = test system: HOP-92
HL-60 = test system: HL-60
SF-268 = test system: SF-268
HT-29 = test system: HT-29
LOX IMVI = test system: LOX IMVI
M19-MEL = test system: M19-MEL
OVCAR-5 = test system: OVCAR-5
CAKI-1 = test system: CAKI-1
SK-MEL-2 = test system: SK-MEL-2

Row | Structure (SMILES) | GI50 (SNB-75) | GI50 (TK-10) | GI50 (OVCAR-8) | GI50 (NCI-H460) | GI50 (M14) | GI50 (SW-620) | GI50 (SF-295) | GI50 (HOP-92) | GI50 (HL-60) | GI50 (SF-268) | GI50 (HT-29) | GI50 (LOX IMVI) | GI50 (M19-MEL) | GI50 (OVCAR-5) | GI50 (CAKI-1) | GI50 (SK-MEL-2)
1 | c1ccc2c(c1)[nH]c1c[nH]c3c4cccnc4nc-3c12 | 18.2 µM (inactive) | 12.7 µM (inactive) | 17.1 µM (inactive) | 21.5 µM (inactive) | 15 µM (inactive) | 18.1 µM (inactive) | 23.4 µM (inactive) | 28.2 µM (inactive) | 17.5 µM (inactive) | 19.7 µM (inactive) | 19.3 µM (inactive) | 19.5 µM (inactive) | 16.9 µM (inactive) | 20.3 µM (inactive) | 14.5 µM (inactive) | –
2 | COC(=O)C1=C(C(=O)OC)C2(c3ccccc3)OC1(c1ccccc1)c1cc3ccccc3cc12 | 0.604 µM (active) | 2.05 µM (inactive) | 1.56 µM (inactive) | 3.56 µM (inactive) | 1.79 µM (inactive) | 1.76 µM (inactive) | 6.28 µM (inactive) | 1.09 µM (active) | 0.45 µM (active) | 1.73 µM (inactive) | 1.77 µM (inactive) | 1.32 µM (inactive) | 1.98 µM (inactive) | 1.91 µM (inactive) | 1.29 µM (inactive) | 1.64 µM (inactive)
3 | O=c1cc(CO)oc2c3c(cc(O)c12)OCC(COC1OC(CO)C(O)C(O)C1O)=CC3 (stereo not drawn) | > 100 µM (inactive) | > 100 µM (inactive) | > 100 µM (inactive) | > 100 µM (inactive) | > 100 µM (inactive) | > 100 µM (inactive) | > 100 µM (inactive) | > 100 µM (inactive) | > 100 µM (inactive) | > 100 µM (inactive) | > 100 µM (inactive) | > 100 µM (inactive) | > 100 µM (inactive) | > 100 µM (inactive) | > 100 µM (inactive) | > 100 µM (inactive)
4 | CC(C)N(CCn1c2c3ccccc3ccc2c2oc(=O)c3ccccc3c21)C(C)C | 25.2 µM (inactive) | > 100 µM (inactive) | > 48.6 µM (inactive) | > 100 µM (inactive) | > 100 µM (inactive) | > 100 µM (inactive) | > 52.2 µM (inactive) | > 54.3 µM (inactive) | > 100 µM (inactive) | > 69.7 µM (inactive) | > 100 µM (inactive) | > 100 µM (inactive) | > 100 µM (inactive) | > 100 µM (inactive) | > 100 µM (inactive) | > 100 µM (inactive)
5 | Cc1ccc(/C=C2\CCCCC2=O)cc1 | 29.6 µM (inactive) | > 100 µM (inactive) | > 100 µM (inactive) | 80.9 µM (inactive) | 49.9 µM (inactive) | > 100 µM (inactive) | > 100 µM (inactive) | – | 19 µM (inactive) | > 100 µM (inactive) | 46.6 µM (inactive) | 31.5 µM (inactive) | > 100 µM (inactive) | – | 42.7 µM (inactive) | –
6 | CCOC(=O)/C(O)=C(/c1n[nH]c(=O)c2ccccc12)[N+](=O)[O-] | > 100 µM (inactive) | > 100 µM (inactive) | > 100 µM (inactive) | > 100 µM (inactive) | > 100 µM (inactive) | > 100 µM (inactive) | > 100 µM (inactive) | > 100 µM (inactive) | > 100 µM (inactive) | > 100 µM (inactive) | > 100 µM (inactive) | > 100 µM (inactive) | > 100 µM (inactive) | > 100 µM (inactive) | – | > 100 µM (inactive)
7 | COc1cc(Cl)c2c3c(c(C(=O)c4ccccc4)oc13)CCC2 | > 100 µM (inactive) | > 100 µM (inactive) | > 100 µM (inactive) | > 100 µM (inactive) | > 100 µM (inactive) | > 100 µM (inactive) | > 100 µM (inactive) | < 0.01 µM (active) | 53.6 µM (inactive) | – | > 100 µM (inactive) | > 100 µM (inactive) | > 100 µM (inactive) | – | > 100 µM (inactive) | –
8 | CCO/C=C1\N=C(c2ccc(Cl)c(Cl)c2)OC1=O | 52.1 µM (inactive) | > 100 µM (inactive) | > 100 µM (inactive) | > 100 µM (inactive) | > 100 µM (inactive) | > 100 µM (inactive) | > 100 µM (inactive) | > 100 µM (inactive) | > 100 µM (inactive) | > 100 µM (inactive) | > 100 µM (inactive) | > 100 µM (inactive) | > 100 µM (inactive) | > 100 µM (inactive) | > 100 µM (inactive) | > 100 µM (inactive)
9 | CC1(C)c2ccccc2N2C(c3ccccc3)=NOC21C (stereo not drawn) | > 100 µM (inactive) | > 100 µM (inactive) | > 100 µM (inactive) | > 100 µM (inactive) | > 100 µM (inactive) | > 100 µM (inactive) | > 100 µM (inactive) | > 100 µM (inactive) | > 100 µM (inactive) | > 100 µM (inactive) | > 100 µM (inactive) | > 100 µM (inactive) | > 100 µM (inactive) | > 100 µM (inactive) | > 100 µM (inactive) | > 100 µM (inactive)
10 | CN(CC1NCCCC1O)C12CC3CC(CC(C3)C1)C2 (stereo not drawn) | – | > 100 µM (inactive) | > 100 µM (inactive) | > 100 µM (inactive) | > 100 µM (inactive) | > 100 µM (inactive) | > 100 µM (inactive) | > 100 µM (inactive) | > 100 µM (inactive) | > 100 µM (inactive) | > 100 µM (inactive) | > 100 µM (inactive) | > 100 µM (inactive) | > 100 µM (inactive) | > 100 µM (inactive) | –
11 | CCCOP1(=O)C=C(C)C(Cl)=C(C)C1 (stereo not drawn) | 22.6 µM (inactive) | 23.1 µM (inactive) | 27 µM (inactive) | 31.2 µM (inactive) | 15.3 µM (inactive) | 17.1 µM (inactive) | 25.2 µM (inactive) | 18.4 µM (inactive) | 22.3 µM (inactive) | 14.6 µM (inactive) | 22.1 µM (inactive) | 13.3 µM (inactive) | 21 µM (inactive) | 29.8 µM (inactive) | – | 6.11 µM (inactive)
12 | CC(=O)O[C@H]1C(=O)[C@@]2(C)C([C@H](OC(=O)c3ccccc3)[C@]3(O)C[C@H](OC(=O)[C@H](O)[C@H](NC(=O)c4ccccc4)c4ccc(Cl)cc4)C(C)=C1C3(C)C)C1(OC(C)=O)CO[C@@H]1C[C@@H]2O (stereo partly drawn) | < 0.0001 µM (active) | 0.0226 µM (active) | 0.00115 µM (active) | 0.000557 µM (active) | 0.00224 µM (active) | 0.000497 µM (active) | 0.0194 µM (active) | – | < 0.0001 µM (active) | 0.00156 µM (active) | 0.000106 µM (active) | < 0.0001 µM (active) | 0.000302 µM (active) | 0.00294 µM (active) | 0.151 µM (active) | 0.00594 µM (active)
13 | NC(=S)N/N=C1\C(=O)N(CCc2ccccc2)C(=O)C1C(=O)NCCc1ccccc1 (stereo not drawn) | 20.7 µM (inactive) | > 100 µM (inactive) | > 100 µM (inactive) | > 100 µM (inactive) | > 100 µM (inactive) | > 100 µM (inactive) | > 100 µM (inactive) | > 100 µM (inactive) | – | > 100 µM (inactive) | > 100 µM (inactive) | > 100 µM (inactive) | > 100 µM (inactive) | > 100 µM (inactive) | > 100 µM (inactive) | > 100 µM (inactive)
14 | Clc1ccc(C(n2cc(Br)cn2)n2cc(Br)cn2)cc1 | > 10 µM (inactive) | 17.4 µM (inactive) | 18.5 µM (inactive) | 16.1 µM (inactive) | 16.8 µM (inactive) | 17 µM (inactive) | 15 µM (inactive) | 15 µM (inactive) | 17.8 µM (inactive) | 16.4 µM (inactive) | 13.2 µM (inactive) | – | 16.9 µM (inactive) | 16 µM (inactive) | 11.1 µM (inactive) | 16.8 µM (inactive)
15 | COC(=O)c1c(N)n[nH]c1N | > 100 µM (inactive) | > 100 µM (inactive) | > 100 µM (inactive) | > 100 µM (inactive) | > 100 µM (inactive) | > 100 µM (inactive) | > 100 µM (inactive) | > 100 µM (inactive) | > 100 µM (inactive) | > 100 µM (inactive) | – | > 100 µM (inactive) | > 100 µM (inactive) | – | > 100 µM (inactive) | > 100 µM (inactive)
16 | COC(=O)[C@H]1C=C[C@@H](C)n2c(=O)c3cc4ccccc4cc3c(=O)n21 | 43.6 µM (inactive) | > 100 µM (inactive) | > 100 µM (inactive) | > 100 µM (inactive) | > 100 µM (inactive) | > 100 µM (inactive) | > 100 µM (inactive) | > 100 µM (inactive) | > 100 µM (inactive) | > 100 µM (inactive) | – | > 100 µM (inactive) | > 100 µM (inactive) | > 100 µM (inactive) | > 100 µM (inactive) | > 100 µM (inactive)
17 | Cc1c2n(c(=O)[nH]c1=O)C1OC(CO)C(N=[N+]=[N-])C1O2 (stereo not drawn) | > 100 µM (inactive) | > 100 µM (inactive) | > 100 µM (inactive) | > 100 µM (inactive) | – | > 100 µM (inactive) | > 100 µM (inactive) | 49.5 µM (inactive) | > 100 µM (inactive) | > 100 µM (inactive) | > 100 µM (inactive) | > 100 µM (inactive) | > 100 µM (inactive) | – | > 100 µM (inactive) | > 100 µM (inactive)
18 | CC(CCc1ccc2c(c1)c(N)c1ccc(N)cc1[n+]2[O-])CC(C)(C)C (stereo not drawn) | 2.07 µM (inactive) | 1.83 µM (inactive) | 1.72 µM (inactive) | 0.597 µM (active) | 1.75 µM (inactive) | 1.68 µM (inactive) | 1.76 µM (inactive) | – | 1.3 µM (inactive) | 2.2 µM (inactive) | 1.22 µM (inactive) | 1.52 µM (inactive) | 1.44 µM (inactive) | 1.48 µM (inactive) | 1.47 µM (inactive) | 1.77 µM (inactive)

From ChEMBL document CHEMBL1201862, “PubChem BioAssay data set” (2004)
